Structures can show the parent of a compound that is named as a salt. Where two headings read alike, the source gives them in different places.
Columns and labels:
[1] = molecular target: T1, electric eel AChE (eeAChE) (Electrophorus electricus, UniProt O42275); assay: biochemical; details: for IC50: triplicate independent experiments; for inhibition at 10 µM: read-out: eeAChE % Inh. at 10 µM
T1 construct: purchased Sigma–Aldrich (Steinheim, Germany)

[2] = molecular target: BuChE from equine serum (eqBuChE) (Equus caballus, UniProt P81908); assay: biochemical; format: biochemical; details: for IC50: mean ± SEM, triplicate independent experiments
hMAO B = molecular target: T2, hMAO B (Homo sapiens, UniProt P27338); assay: Fluorometric MAO assay, hMAO B inhibition; format: biochemical; details: mean ± SEM of two independent experiments, read-out: hMAO B %Inh. at 1 µM
T2 sequence (P27338 1-520): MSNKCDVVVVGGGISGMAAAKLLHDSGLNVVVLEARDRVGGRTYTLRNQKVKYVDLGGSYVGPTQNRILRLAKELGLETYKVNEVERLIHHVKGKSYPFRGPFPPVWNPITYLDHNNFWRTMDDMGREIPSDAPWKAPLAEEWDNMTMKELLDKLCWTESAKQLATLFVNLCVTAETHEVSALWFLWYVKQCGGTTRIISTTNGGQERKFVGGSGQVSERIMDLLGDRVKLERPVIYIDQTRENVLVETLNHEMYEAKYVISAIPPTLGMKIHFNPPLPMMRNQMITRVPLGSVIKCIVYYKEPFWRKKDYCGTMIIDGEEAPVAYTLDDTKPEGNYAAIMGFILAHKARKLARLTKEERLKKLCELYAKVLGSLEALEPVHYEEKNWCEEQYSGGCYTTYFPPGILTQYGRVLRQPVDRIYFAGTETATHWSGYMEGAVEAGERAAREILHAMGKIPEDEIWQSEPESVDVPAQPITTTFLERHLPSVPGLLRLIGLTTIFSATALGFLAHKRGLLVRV

human H3R [3] = molecular target: T3, human H3R (Homo sapiens, UniProt Q9Y5N1)
T3 construct: expressed in transfected cells; host or cells: HEK293

human H3R [4] = molecular target: T3, human H3R; assay: [3H]Nα-methylhistamine radioligand binding assay in HEK293 cells stably expressing hH3R
Protocol: Final compounds were tested for their H3R affinity in a radioligand binding assay using [^3H]N^α-methylhistamine as radioligand in HEK293 cells stably expressing hH3R [25]. […] Affinity to hH3R stably expressed in HEK293 cells was evaluated in a radioligand binding assay as described previously. […] The radioactivity was counted in a MicroBeta Trilux counter (PerkinElmer). Data were fitted to a one-site curve-fitting equation with Prism 6 (GraphPad Software, San Diego, CA, USA) and Ki values were calculated from IC50 values (from at least three experiments performed in duplicates) according to the Cheng−Prusoff equation [52].

hepatoma HepG2 cells = assay: Hepatotoxicity, MTS viability of HepG2 cells; details: 72 h incubation, MTS
Protocol: Doxorubicin (DX) at the concentration of 1 μM was used as the reference cytostatic drug.
A multifunctional reader EnSpire (PerkinElmer, Waltham, MA, USA) was used to measure the absorbance.

hH3R = details: Figure 2; read-out: humanH3R Ki; cited from earlier work
human AChE = details: Figure 2; read-out: humanAChE IC50; cited from earlier work
equine BuChE = system: equine BuChE; design: method as in PMID 33991182, PMID 32882609, PMID 28832188, PMID 19222043, PMID 18396354; details: Figure 2; read-out: equineBuChE IC50; cited from earlier work
human BuChE = details: Figure 2; read-out: humanBuChE IC50; cited from earlier work
[5] = mean ± SEM, read-out: eeAChE IC50
[6] = values marked *; mean [95% CI]; read-out: hH3R Ki; cited from earlier work
[7] = mean value within the 95% CI, three repetitions, read-out: hH3R Ki
[8] = read-out: hH3R Ki; values marked *; mean [95% CI]; cited from earlier work

T1 sequence (O42275 24-633): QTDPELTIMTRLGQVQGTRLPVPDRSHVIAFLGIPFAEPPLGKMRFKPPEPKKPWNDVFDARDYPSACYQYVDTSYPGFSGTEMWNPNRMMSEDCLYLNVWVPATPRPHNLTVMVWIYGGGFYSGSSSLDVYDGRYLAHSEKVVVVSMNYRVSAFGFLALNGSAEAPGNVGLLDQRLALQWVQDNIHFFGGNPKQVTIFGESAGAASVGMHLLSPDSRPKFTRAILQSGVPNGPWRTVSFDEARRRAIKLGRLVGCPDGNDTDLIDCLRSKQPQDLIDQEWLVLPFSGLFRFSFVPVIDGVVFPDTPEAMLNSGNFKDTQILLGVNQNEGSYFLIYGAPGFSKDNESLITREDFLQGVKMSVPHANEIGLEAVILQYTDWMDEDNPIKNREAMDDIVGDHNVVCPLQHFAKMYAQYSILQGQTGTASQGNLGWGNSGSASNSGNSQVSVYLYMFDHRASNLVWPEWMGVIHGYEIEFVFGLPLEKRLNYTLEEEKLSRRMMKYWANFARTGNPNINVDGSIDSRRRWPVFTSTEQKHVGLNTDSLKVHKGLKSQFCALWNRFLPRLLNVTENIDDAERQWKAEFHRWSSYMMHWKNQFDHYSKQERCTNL
T3 sequence (Q9Y5N1 whole entry): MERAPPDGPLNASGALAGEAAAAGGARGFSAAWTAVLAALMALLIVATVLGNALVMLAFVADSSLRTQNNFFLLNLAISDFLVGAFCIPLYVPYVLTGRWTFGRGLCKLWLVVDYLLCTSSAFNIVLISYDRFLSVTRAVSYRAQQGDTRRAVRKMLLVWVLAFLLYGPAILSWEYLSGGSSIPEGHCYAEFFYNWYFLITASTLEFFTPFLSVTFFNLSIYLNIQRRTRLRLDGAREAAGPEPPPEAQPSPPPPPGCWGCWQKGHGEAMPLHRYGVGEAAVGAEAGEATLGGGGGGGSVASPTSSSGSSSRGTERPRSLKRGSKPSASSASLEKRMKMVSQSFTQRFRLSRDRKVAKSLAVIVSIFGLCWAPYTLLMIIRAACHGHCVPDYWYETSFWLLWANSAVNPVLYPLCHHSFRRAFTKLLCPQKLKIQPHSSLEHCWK
Sequence of BuChE from equine serum (eqBuChE) (P81908 whole entry): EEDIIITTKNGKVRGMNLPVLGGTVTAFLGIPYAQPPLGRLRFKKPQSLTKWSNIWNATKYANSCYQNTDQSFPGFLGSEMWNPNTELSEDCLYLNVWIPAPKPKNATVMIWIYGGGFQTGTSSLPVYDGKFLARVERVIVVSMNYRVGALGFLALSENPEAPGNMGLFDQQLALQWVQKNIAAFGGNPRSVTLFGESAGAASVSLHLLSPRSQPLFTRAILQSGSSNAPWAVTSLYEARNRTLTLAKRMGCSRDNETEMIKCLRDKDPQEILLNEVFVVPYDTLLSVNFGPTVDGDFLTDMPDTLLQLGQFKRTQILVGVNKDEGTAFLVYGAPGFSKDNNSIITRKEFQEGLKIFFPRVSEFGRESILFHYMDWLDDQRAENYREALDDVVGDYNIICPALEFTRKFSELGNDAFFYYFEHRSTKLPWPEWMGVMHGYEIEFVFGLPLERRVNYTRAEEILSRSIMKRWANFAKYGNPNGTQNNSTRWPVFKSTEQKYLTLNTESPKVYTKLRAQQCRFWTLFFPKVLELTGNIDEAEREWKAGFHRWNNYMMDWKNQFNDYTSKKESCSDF

`O=C(c1ccccc1)c1cccc(OCCCCCCN2CCCCC2)c1` [Compound 8, Phenyl (3-((6-(piperidin-1-yl)hexyl)oxy)phenyl)methanone hydrogen oxalate] showed an IC50 [1, 5] of 3.63 ± 0.111 µM, an IC50 [2] of 2.1 ± 0.06 µM and an inhibition at 1 µM (hMAO B) of 15%. The Ki (human H3R [3]; [6]) was 0.076 µM.
Molecule `O=C(c1ccccc1)c1ccc(OCCCCCCN2CCCCC2)cc1` [Compound 9, Phenyl (4-((6-(piperidin-1-yl)hexyl)oxy)phenyl)methanone hydrogen oxalate] has an IC50 [1, 5] of 3.73 ± 0.085 µM, an IC50 [2] of 1.78 ± 0.034 µM and an inhibition at 1 µM (hMAO B) of 9%. For the same molecule, the Ki (human H3R [3]; [6]) was 0.041 µM.
Work on `CC1CCCN(CCCCCOc2ccc(C(=O)c3ccccc3)cc2)C1` (stereo not drawn) [Compound 14, (4-((5-(3-Methylpiperidin-1-yl)pentyl)oxy)phenyl)(phenyl)methanone hydrogen oxalate] yielded an IC50 [1, 5] of 3.18 ± 0.083 µM, an IC50 [2] of 3.78 ± 0.061 µM and an inhibition at 1 µM (hMAO B) of 9%. The Ki (human H3R [3]; [6]) was 0.04 µM.
For `CC1CCCN(CCCCCCOc2ccccc2C(=O)c2ccccc2)C1.O=C(O)C(=O)O` (stereo not drawn) [Compound 17, (2-((6-(3-Methylpiperidin-1-yl)hexyl)oxy)phenyl)(phenyl)methanone hydrogen oxalate], the Ki (human H3R [4]) was 0.152 µM, the inhibition at 10 µM [1] was 20% and the “selectivity eqBuChE versus eeAChE” value [2] was “selective eqBuChE inhibitors”. For the same molecule, the IC50 [2] was 2.5 ± 0.028 µM and the inhibition at 1 µM (hMAO B) was 8%.
`CC1CCCN(CCCCCCOc2cccc(C(=O)c3ccccc3)c2)C1` (stereo not drawn) [Compound 18, (3-((6-(3-Methylpiperidin-1-yl)hexyl)oxy)phenyl)(phenyl)methanone hydrogen oxalate] showed an IC50 [1, 5] of 2 ± 0.03 µM, an IC50 [2] of 2.9 ± 0.077 µM and an inhibition at 1 µM (hMAO B) of 27%. The Ki (human H3R [3]; [6]) was 0.11 µM.
With `CC1CCCN(CCCCCCOc2ccc(C(=O)c3ccccc3)cc2)C1` (stereo not drawn) [Compound 19, (4-((6-(3-Methylpiperidin-1-yl)hexyl)oxy)phenyl)(phenyl)methanone hydrogen oxalate] the IC50 [1, 5] was 2.11 ± 0.05 µM, the IC50 [2] was 1.98 ± 0.034 µM and the inhibition at 1 µM (hMAO B) was 7%. For the same molecule, the Ki (human H3R [3]; [6]) was 0.053 µM.
With `CC1CCCN(CCCCCCOc2ccc(C(=O)c3ccc(Cl)cc3)cc2)C1` (stereo not drawn) [Compound 20, (4-Chlorophenyl) (4-((6-(3-methylpiperin-1-yl)hexyl)oxy)phenyl)methanone hydrogen oxalate] the Ki (human H3R [4]; [7]) was 0.044 µM, the IC50 [1, 5] was 2.74 ± 0.098 µM and the IC50 [2] was 2.52 ± 0.031 µM. The inhibition at 1 µM (hMAO B) was 17%.
With `CC1CCCN(CCCCCCOc2ccc(C(=O)c3ccc(F)cc3)cc2)C1` (stereo not drawn) [Compound 21, (4-Fluorophenyl) (4-(6-(3-methylpiperin-1-yl)hexyloxy)phenyl)methanone hydrogen oxalate] the Ki (human H3R [4]; [7]) was 0.075 µM, the IC50 [1, 5] was 2 ± 0.046 µM and the IC50 [2] was 2.56 ± 0.04 µM. For the same molecule, the inhibition at 1 µM (hMAO B) was 23%.
`CC1CCN(CCCCCOc2cccc(C(=O)c3ccccc3)c2)CC1` [Compound 22, (3-((5-(4-Methylpiperidin-1-yl)pentyl)oxy)phenyl)(phenyl)methanone hydrogen oxalate] gave a Ki (human H3R [4]) of 0.298 µM, an IC50 [1, 5] of 4.45 ± 0.094 µM and an IC50 [2] of 1.7 ± 0.046 µM. It also gave an inhibition at 1 µM (hMAO B) of 32%.
`CC1CCN(CCCCCOc2ccc(C(=O)c3ccccc3)cc2)CC1` [Compound 23, (4-((5-(4-Methylpiperidin-1-yl)pentyl)oxy)phenyl)(phenyl)methanone hydrogen oxalate] showed a Ki (human H3R [4]) of 0.067 µM, an IC50 [1, 5] of 2.6 ± 0.072 µM and an IC50 [2] of 1.57 ± 0.035 µM. The inhibition at 1 µM (hMAO B) was 27%.
Work on `CC1CCN(CCCCCCOc2cccc(C(=O)c3ccccc3)c2)CC1` [Compound 24, (3-((6-(4-Methylpiperidin-1-yl)hexyl)oxy)phenyl)(phenyl)methanone hydrogen oxalate] yielded a Ki (human H3R [4]) of 0.106 µM, an IC50 [1, 5] of 2.46 ± 0.07 µM and an IC50 [2] of 1.06 ± 0.043 µM. It also gave an inhibition at 1 µM (hMAO B) of 20%.
In the case of `CC1CCN(CCCCCCOc2ccc(C(=O)c3ccccc3)cc2)CC1` [Compound 25, (4-((6-(4-Methylpiperidin-1-yl)hexyl)oxy)phenyl)(phenyl)methanone hydrogen oxalate], the Ki (human H3R [4]) is reported as 0.053 µM, the IC50 [1, 5] is reported as 2.69 ± 0.047 µM and the IC50 [2] is reported as 1.56 ± 0.05 µM. The inhibition at 1 µM (hMAO B) was 22%.
In the case of `O=C(O)C(=O)O.O=C(c1ccccc1)c1ccccc1OCCCCCN1CCCCCC1` [Compound 26, (2-((5-(Azepan-1-yl)pentyl)oxy)phenyl)(phenyl)methanone hydrogen oxalate], the Ki (human H3R [4]) is reported as 0.302 µM, the inhibition at 10 µM [1] is reported as 24% and the “selectivity eqBuChE versus eeAChE” value [2] is reported as “selective eqBuChE inhibitors”. For the same molecule, the IC50 [2] was 0.384 ± 0.008 µM and the inhibition at 1 µM (hMAO B) was 3%.
For `O=C(c1ccccc1)c1cccc(OCCCCCN2CCCCCC2)c1` [Compound 27, (3-((5-(Azepan-1-yl)pentyl)oxy)phenyl)(phenyl)methanone hydrogen oxalate], the Ki (human H3R [4]) was 0.307 µM, the IC50 [1, 5] was 3.66 ± 0.092 µM and the IC50 [2] was 0.901 ± 0.01 µM. It also gave an inhibition at 1 µM (hMAO B) of 14%.
Molecule `O=C(c1ccccc1)c1ccc(OCCCCCN2CCCCCC2)cc1` [Compound 28, (4-((5-(Azepan-1-yl)pentyl)oxy)phenyl)(phenyl)methanone hydrogen oxalate] has an IC50 ([1]; eeAChE IC50, mean ± SEM) of 4.63 ± 0.1 µM, an IC50 [2] of 0.678 ± 0.007 µM and an inhibition at 1 µM (hMAO B) of 29%. The Ki (human H3R [3]; [8]) was 0.039 µM.
With `O=C(c1ccc(Cl)cc1)c1ccc(OCCCCCN2CCCCCC2)cc1` [Compound 29, (4-Chlorophenyl)(4-(5-(azepan-1-yl)pentyloxy)phenyl)methanone hydrogen oxalate] the Ki (human H3R [4]) was 0.066 µM, the IC50 [1, 5] was 2.24 ± 0.035 µM and the IC50 [2] was 0.676 ± 0.003 µM. For the same molecule, the inhibition at 1 µM (hMAO B) was 26%.
For `O=C(c1ccc(F)cc1)c1ccc(OCCCCCN2CCCCCC2)cc1` [Compound 30, (4-Fluorophenyl) (4-((5-(azepan-1-yl)pentyl)oxy)phenyl)methanone hydrogen oxalate], the Ki (human H3R [4]) was 0.013 µM, the IC50 [1, 5] was 1.11 ± 0.003 µM and the IC50 [2] was 0.224 ± 0.003 µM. For the same molecule, the inhibition at 1 µM (hMAO B) was 30%.
In the case of `O=C(O)C(=O)O.O=C(c1ccccc1)c1ccccc1OCCCCCCN1CCCCCC1` [Compound 31, (2-((6-(Azepan-1-yl)hexyl)oxy)phenyl)(phenyl)methanone hydrogen oxalate], the Ki (human H3R [4]) is reported as 0.162 µM, the inhibition at 10 µM [1] is reported as 11% and the “selectivity eqBuChE versus eeAChE” value [2] is reported as “selective eqBuChE inhibitors”. The IC50 [2] was 0.317 ± 0.003 µM and the inhibition at 1 µM (hMAO B) was 5%.
`O=C(c1ccccc1)c1cccc(OCCCCCCN2CCCCCC2)c1` [Compound 32, (3-((6-(Azepan-1-yl)hexyl)oxy)phenyl)(phenyl)methanone hydrogen oxalate] gave an IC50 [1, 5] of 1.55 ± 0.034 µM, an IC50 [2] of 0.616 ± 0.002 µM and an inhibition at 1 µM (hMAO B) of 17%. For the same molecule, the Ki (human H3R [3]; [6]) was 0.07 µM.
In the case of `O=C(c1ccccc1)c1ccc(OCCCCCCN2CCCCCC2)cc1` [Compound 33, (4-((6-(Azepan-1-yl)hexyl)oxy)phenyl)(phenyl)methanone hydrogen oxalate], the IC50 [1, 5] is reported as 1.81 ± 0.038 µM, the IC50 [2] is reported as 1.28 ± 0.038 µM and the inhibition at 1 µM (hMAO B) is reported as 23%. The Ki (human H3R [3]; [8]) was 0.041 µM.
For `O=C(c1ccc(Cl)cc1)c1ccc(OCCCCCCN2CCCCCC2)cc1` [Compound 34, (4-Chlorophenyl)(4-((6-(azepan-1-yl)hexyl)oxy)phenyl)methanone hydrogen oxalate], the Ki (human H3R [4]) was 0.133 µM, the IC50 [1, 5] was 2.033 ± 0.018 µM and the IC50 [2] was 0.867 ± 0.002 µM. It also gave an inhibition at 1 µM (hMAO B) of 30%.
For `O=C(c1ccc(F)cc1)c1ccc(OCCCCCCN2CCCCCC2)cc1` [Compound 35, (4-((6-(Azepan-1-yl)hexyl)oxy)phenyl)(4-fluorophenyl)methanone hydrogen oxalate], the Ki (human H3R [4]) was 0.035 µM, the IC50 [1, 5] was 1.654 ± 0.004 µM and the IC50 [2] was 0.161 ± 0.004 µM. It also gave an inhibition at 1 µM (hMAO B) of 24%.
With `COc1cccc2c1C(=O)c1c(O)c3c(c(O)c1C2=O)C[C@@](O)(C(=O)CO)C[C@@H]3O[C@H]1C[C@H](N)[C@H](O)[C@H](C)O1` [Doxorubicin, reference compound] the “concentration decreasing HepG2 cell viability” value (hepatoma HepG2 cells) was at most 1000 nM.
For `c1cc2c(cc1OCCCCCCN1CCCCC1)CN1CCCC1=N2` [compound IV], the Ki (hH3R) is given as 0.11 µM, the IC50 (human AChE) is given as 0.0391 µM and the IC50 (equine BuChE) is given as 1.3 µM.
In the case of `COc1ccc(C(=O)c2cccc(CN(C)Cc3ccccc3)c2)cc1OC` [compound V], the IC50 (human AChE) is listed as 0.46 µM and the IC50 (human BuChE) is listed as 60.7 µM.
In the case of xanthostigmine, the IC50 (human AChE) is given as 0.0003 µM and the IC50 (human BuChE) is given as 0.048 µM.

— PMC9822066 (Molecules, 2022)
